# Data published in BindingDB's records for doi:10.1016/j.bmcl.2007.05.021 (Yale University, 2007).
# Target: Transcription factor Jun (Homo sapiens, UniProt P05412)
# Assay: Inhibition of AP1-mediated gene transcription in HepG2 cells by luciferase reporter gene assay
# Chain of Transcription factor Jun (P05412 whole entry): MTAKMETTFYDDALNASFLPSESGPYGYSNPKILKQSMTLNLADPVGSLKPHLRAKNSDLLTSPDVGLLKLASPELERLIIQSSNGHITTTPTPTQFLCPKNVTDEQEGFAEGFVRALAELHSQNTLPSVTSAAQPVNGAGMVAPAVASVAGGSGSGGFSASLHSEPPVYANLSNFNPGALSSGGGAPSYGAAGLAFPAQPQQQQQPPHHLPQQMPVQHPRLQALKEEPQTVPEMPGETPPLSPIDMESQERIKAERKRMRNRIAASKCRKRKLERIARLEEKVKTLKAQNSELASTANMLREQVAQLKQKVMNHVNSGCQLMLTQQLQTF
row,SMILES,IC50
1,COc1ccc2c3c(c4cc(OC)c(O)cc4c2c1)CN1CCC[C@@H]1C3 [[(R)-(+)-deoxytylophorinidine],68 nM
2,COc1ccc2c3c(c4cc(OC)c(OC)cc4c2c1)C[N+]1([O-])CCC[C@H]1[C@@H]3O (stereo partly drawn) [tylophoridicine F],> 3000 nM
3,COc1ccc2c3c(c4cc(OC)c(OC)cc4c2c1)CN1CCC[C@H]1[C@@H]3O [tylophorinine],110 nM
4,"COc1cc2c(cc1OC)-c1cc(OC)c(OC)cc1C1CN3CCC[C@H]3C=C21 (stereo partly drawn) [(S)-2,3,6,7-tetramethoxy-8b,9,10,11,12,12a-hexahydro-9a-aza-cyclopenta[b]triphenylene]",> 300 nM
5,"COc1cc2c3c(c4cc(OC)c(OC)cc4c2cc1O)CN1CCC[C@H]1[C@H]3O [(12aS,13S)-2,6,7-trimethoxy-9,10,11,12,12a,13-hexahydro-9a-aza-cyclopenta[b]triphenylene-3,13-diol]",> 1000 nM
6,COc1ccc2c3c(c4cc(OC)c(O)cc4c2c1)C[N+]1([O-])CCC[C@H]1[C@H]3O (stereo partly drawn) [tylophoridicine C],> 3000 nM
7,COc1ccc2c3c(c4cc(OC)c(O)cc4c2c1)CN1CCC[C@H]1[C@H]3O [tylophorinidine],65 nM
8,"COc1cc2c3c(c4cc(OC)c(OC)cc4c2cc1OC)[C@@H](O)[C@@H]1CCCN1C3 [(12aS,13R)-2,3,6,7-tetramethoxy-9,10,11,12,12a,13-hexahydro-9a-aza-cyclopenta[b]triphenylen-13-ol]",> 300 nM
